Measured values published in patent publication US20070048225A1, “NK3 receptor in vivo assay” (priority 2005, published 2007).
Numbered stars: 1 amine (or outer) side, 2 acyl side, 3 side chain; on linkers, the order of the positions; unused ones are H or OH. Square brackets hold non-standard residues; d marks the D form. Peptide text beside a SMILES is read from it. NMeF = CN[C@@H](Cc1ccccc1)C(=O)O; Suc = O=C(CCC(=O)[*:2])[*:1]

Assays:
NK3-receptor = target: T1, NK3-receptor (Homo sapiens, UniProt P29371); conditions: double blind placebo controlled; Meltzer et al. 2004; cited from earlier work
T1 construct: active in a double blind placebo controlled clinical trial in schizophrenia patients; host or cells: schizophrenia patients (Meltzer et al., Am J Psych 161:975-84, 2004)
T1 sequence (P29371 1-465): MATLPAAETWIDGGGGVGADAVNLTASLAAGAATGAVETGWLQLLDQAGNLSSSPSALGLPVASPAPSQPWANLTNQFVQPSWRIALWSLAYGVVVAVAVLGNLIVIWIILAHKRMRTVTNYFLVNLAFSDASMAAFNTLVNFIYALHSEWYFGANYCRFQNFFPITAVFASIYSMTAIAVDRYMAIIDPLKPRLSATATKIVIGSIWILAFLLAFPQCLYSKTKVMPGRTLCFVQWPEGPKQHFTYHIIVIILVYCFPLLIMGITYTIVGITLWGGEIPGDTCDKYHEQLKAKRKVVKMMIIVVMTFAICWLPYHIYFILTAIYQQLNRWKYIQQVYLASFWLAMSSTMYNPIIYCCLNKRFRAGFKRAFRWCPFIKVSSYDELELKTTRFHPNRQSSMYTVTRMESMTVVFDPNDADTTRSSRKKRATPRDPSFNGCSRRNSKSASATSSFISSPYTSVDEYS

NK3 receptor = test: Senktide-induced locomotor activity in gerbils (total distance traveled); type: in vivo, Mongolian gerbil; conditions: senktide 0.01, 0.03 or 0.1 nM/5 μL ICV tested, effect at 0.1 nM/5 μL, activity measured for 90 minutes, FIG. 1
Protocol: Male and female Mongolian gerbils [Biological Research Laboratories, 4414 Füllinsdorf, Switzerland] weighing between 40-70 g were used. Gerbils were housed four per cage for approximately four to seven days following arrival in the laboratory colony. The gerbils had ad libitum access to tap water and lab chow in the home cage. The animal quarters were maintained on a 12:12 hour light-dark cycle with light onset at 6 a.m. and with both temperature (21-23° C.) and humidity (55-65%) regulated. All testing was conducted during the light phase of the light-dark cycle. All procedures described here received prior approval from the City of Basel Cantonal Animal Protection Committee based on adherence to federal and local regulations. The experiments were carried out in an animal colony supervised by the veterinary staff of Hoffmann-La Roche Ltd.
The antagonists were prepared immediately prior to use (vehicle 0.3% Tween-80/saline). […]
The incision was closed using a clip suture and gerbils were placed into perspex boxes on recovery of their righting reflex and then placed into locomotor activity boxes (Accuscan instruments, USA). Activity was then measured automatically for a period of 90 minutes.
Data were analysed using a One way anova followed by Dunnet multiple comparison test or t-test (one-tailed) where appropriate (Statistica, Statsoft).

| Structure (SMILES) | activity in clinical trial in schizophrenia patients (NK3-receptor) | total distance traveled (locomotor activity) (NK3 receptor) |
| --- | --- | --- |
| CC(=O)N(C)C1(c2ccccc2)CCN(CCC[C@]2(c3ccc(Cl)c(Cl)c3)CCCN(C(=O)c3ccccc3)C2)CC1 [SR142801] | active | – |
| CSCC[C@H](NC(=O)[C@H](CC(C)C)NC(=O)CNC(=O)[C@H](Cc1ccccc1)N(C)C(=O)[C@H](Cc1ccccc1)NC(=O)[C@H](CC(=O)O)NC(=O)CCC(=O)O)C(N)=O [Senktide, N-(3-carboxy-1-oxopropyl)-L-α-aspartyl-L-phenylalanyl-N-methyl-L-phenylalanylglycyl-L-leucyl-L-methioninamide] (Suc-DF[NMeF]GLM-NH2) | – | significant increase |
